Values joined by “and” are separate entries in the source; they are usually repeats but may differ in a detail not shown here. Equal values may be shown once. Read-outs that look alike come from different tables or passages of the source.
Experiments:
Aurora-1 (Aurora B) = Aurora-1 (Aurora B) (Homo sapiens, UniProt Q96GD4); test: Aurora-1 (Aurora B) inhibition assay (radiometric); assay type: biochemical; conditions: read-out: Aurora B kinase Ki value
How it was run: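 Ki values come from non-linear regression of background-corrected initial-rate data. The enzyme was preincubated 10 min at 25° C with compound, then reacted 3 h with 800 μM (final) [γ-^33P]-ATP in HEPES pH 7.5/MgCl2/BSA/glycerol buffer. The reaction was stopped with phosphoric acid and substrate-bound ^33P counted on phosphocellulose.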

JAK3 = molecular target: T1, JAK3 (Homo sapiens, UniProt P52333); test: biochemical
T1 sequence (P52333 1-1124): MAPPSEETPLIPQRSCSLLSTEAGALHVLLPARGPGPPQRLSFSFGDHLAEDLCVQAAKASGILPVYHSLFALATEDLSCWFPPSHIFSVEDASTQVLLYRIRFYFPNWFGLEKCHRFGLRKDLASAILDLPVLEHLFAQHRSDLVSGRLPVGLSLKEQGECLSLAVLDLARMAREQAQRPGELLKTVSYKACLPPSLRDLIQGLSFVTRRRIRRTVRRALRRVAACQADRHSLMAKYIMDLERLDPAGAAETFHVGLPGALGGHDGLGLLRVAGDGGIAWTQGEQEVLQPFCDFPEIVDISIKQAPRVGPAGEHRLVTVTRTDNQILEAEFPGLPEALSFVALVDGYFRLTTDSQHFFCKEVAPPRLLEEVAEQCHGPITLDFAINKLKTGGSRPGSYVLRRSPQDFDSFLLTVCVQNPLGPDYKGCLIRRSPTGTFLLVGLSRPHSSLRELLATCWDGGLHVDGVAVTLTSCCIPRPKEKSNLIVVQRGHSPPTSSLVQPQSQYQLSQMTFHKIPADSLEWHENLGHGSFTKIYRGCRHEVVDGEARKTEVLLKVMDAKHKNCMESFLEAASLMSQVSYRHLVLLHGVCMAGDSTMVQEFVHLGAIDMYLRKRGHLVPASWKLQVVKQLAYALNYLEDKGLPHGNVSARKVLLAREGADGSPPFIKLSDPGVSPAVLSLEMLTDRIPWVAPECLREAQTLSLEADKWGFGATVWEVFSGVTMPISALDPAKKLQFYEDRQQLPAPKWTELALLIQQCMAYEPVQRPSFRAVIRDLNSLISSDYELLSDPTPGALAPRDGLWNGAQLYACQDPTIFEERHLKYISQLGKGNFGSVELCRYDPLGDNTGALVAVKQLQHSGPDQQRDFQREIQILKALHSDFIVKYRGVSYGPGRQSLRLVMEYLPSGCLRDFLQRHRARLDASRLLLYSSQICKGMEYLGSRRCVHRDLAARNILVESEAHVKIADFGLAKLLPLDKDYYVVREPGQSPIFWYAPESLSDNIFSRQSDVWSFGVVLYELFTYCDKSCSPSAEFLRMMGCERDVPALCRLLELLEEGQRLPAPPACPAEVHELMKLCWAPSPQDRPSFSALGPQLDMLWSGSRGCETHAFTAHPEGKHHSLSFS
Experimental: Reactions were carried out in a kinase buffer containing 100 mM HEPES (pH 7.4), 1 mM DTT, 10 mM MgCl2, 25 mM NaCl, and 0.01% BSA. Substrate concentrations in the assay were 5 μM ATP (200 uCi/μmole ATP) and 1 μM poly(Glu)4Tyr. Reactions were carried out at 25° C. and 1 nM JAK3.
To each well of a 96 well polycarbonate plate was added 1.5 μl of a candidate JAK3 inhibitor along with 50 μl of kinase buffer containing 2 μM poly(Glu)4Tyr and 10 μM ATP. This was then mixed and 50 μl of kinase buffer containing 2 nM JAK3 enzyme was added to start the reaction. After 20 minutes at room temperature (25 C), the reaction was stopped with 50 μl of 20% trichloroacetic acid (TCA) that also contained 0.4 mM ATP. The entire contents of each well were then transferred to a 96 well glass fiber filter plate using a TomTek Cell Harvester. After washing, 60 μl of scintillation fluid was added and ^33P incorporation detected on a Perkin Elmer TopCount.

Aurora-1 (Aurora B), sequence (Q96GD4 whole entry): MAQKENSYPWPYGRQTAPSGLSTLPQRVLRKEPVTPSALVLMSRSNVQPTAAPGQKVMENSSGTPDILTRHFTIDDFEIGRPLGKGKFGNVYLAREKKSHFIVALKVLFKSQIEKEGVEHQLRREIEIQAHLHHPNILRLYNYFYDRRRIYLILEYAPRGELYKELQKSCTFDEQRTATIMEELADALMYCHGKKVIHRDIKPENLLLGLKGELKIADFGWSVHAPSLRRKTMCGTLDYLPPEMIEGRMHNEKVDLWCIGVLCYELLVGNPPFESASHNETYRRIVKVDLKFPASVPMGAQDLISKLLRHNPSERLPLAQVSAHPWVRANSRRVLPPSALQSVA

| Structure (SMILES) | Ki (Aurora-1 (Aurora B)) | Ki (JAK3) [nM] | Ki (JAK3; read-out: JAK3 Ki value) [nM] |
| --- | --- | --- | --- |
| Cc1cc(Nc2cc(N3CC(O)(C4CC4)C3)nc(Sc3cc(F)c4nc(C)ccc4c3)n2)[nH]n1 [Compound 172] | ≤ 10 nM | ≤ 10 | – |
| Cc1cc(Nc2cc(N3CC(C)(O)C3)nc(Sc3ccc(NC(=O)c4ccccc4Cl)cc3)n2)[nH]n1 [Compound 50] | ≤ 10 nM | – | ≤ 10 |
| Cc1cc(Nc2cc(N3CC(OC(C)C)C3)nc(Sc3ccc(NC(=O)c4ccccc4Cl)cc3)n2)n[nH]1 [Compound 38] | ≤ 10 nM | 10 to 500 | – |
| CCOC1CN(c2cc(Nc3cc(C)[nH]n3)nc(Sc3ccc(NC(=O)c4ccccc4Cl)cc3)n2)C1 [Compound 37] | ≤ 10 nM | – | ≤ 10 |
| CCC(=O)Nc1ccc(Sc2nc(Nc3cc(C)n[nH]3)cc(N3CC(N4CCOCC4)C3)n2)cc1 [Compound 68] | 50 to 2000 nM | 10 to 500 | – |
| Cc1cc(Nc2cc(N3CC(F)(C4CC4)C3)nc(Sc3ccc(NC(=O)CN(C)C)cc3)n2)[nH]n1 [Compound 152] | ≤ 10 nM | 500 to 2000 | – |
| Cc1cc(Nc2cc(N3CC(C)(F)C3)nc(Sc3ccc(NC(=O)CC(F)(F)F)cc3)n2)n[nH]1 [Compound 168, N-(4-(4-(5-methyl-1H-pyrazol-3-ylamino)-6-(3-fluoro-3-methylazetidin-1-yl)pyrimidin-2-ylthio)phenyl)-3,3,3-trifluoropropanamide] | ≤ 10 nM | – | 10 to 500 |
| CCC(=O)Nc1ccc(Sc2nc(Nc3cc(C)n[nH]3)cc(N3CC(OC(C)(C)C)C3)n2)cc1 [Compound 67] | 50 to 2000 nM | – | 10 to 500 |
| Cc1cc(Nc2cc(N3CC(O)(C4CC4)C3)nc(Sc3ccc(NC(=O)C4CC4)c(F)c3)n2)[nH]n1 [Compound 109] | 10 to 50 nM | – | 10 to 500 |
| Cc1cc(Nc2cc(N3CC(O)(C4CC4)C3)nc(Sc3ccc4nc(C(F)(F)F)ccc4c3)n2)[nH]n1 [Compound 186] | ≤ 10 nM | – | 10 to 500 |
| Cc1cc(Nc2cc(N3CC(N4CC[C@H](F)C4)C3)nc(Sc3ccc(NC(=O)CC(F)(F)F)cc3)n2)[nH]n1 [Compound 185] | ≤ 10 nM | – | ≤ 10 |
| CCC(=O)Nc1ccc(Sc2nc(Nc3cc(C)n[nH]3)cc(N3CC(OC)(C(C)(C)C)C3)n2)cc1 [Compound 90] | ≤ 10 nM | 10 to 500 | – |
| CC(C)(C)c1cc(Nc2cc(N3CCC3)nc(Sc3ccc(NC(=O)c4ccccc4Cl)cc3)n2)n[nH]1 [Compound 69] | 50 to 2000 nM | – | 500 to 2000 |
| Cc1cc(Nc2cc(N3CC(O)(C4CC4)C3)nc(Sc3ccc4nc(C(F)(F)F)n(C)c4c3)n2)[nH]n1 [Compound 155] | ≤ 10 nM | 10 to 500 | – |
| Cc1cc(Nc2cc(N3CC(C)(C(C)(C)F)C3)nc(Sc3ccc(NC(=O)CC(F)(F)F)cc3)n2)[nH]n1 [Compound 183] | ≤ 10 nM | – | ≤ 10 |
| CCC(=O)Nc1ccc(Sc2nc(Nc3cc(C)n[nH]3)cc(N3CC(C)(N4CCOCC4)C3)n2)cc1 [Compound 88] | ≤ 10 nM | – | ≤ 10 |
| Cc1cc(Nc2cc(N3CC(OC(=O)CN(C)C)(C4CC4)C3)nc(Sc3ccc(NC(=O)C4CC4)cc3)n2)n[nH]1 [Compound 119] | ≤ 10 nM | 10 to 500 | – |
| Cc1cnc(Nc2cc(N3CC(F)(C4CC4)C3)nc(Oc3ccc(NC(=O)CC(F)(F)F)cc3)n2)s1 [Compound 181] | 10 to 50 nM | – | ≤ 10 |

| Structure (SMILES) | Ki (Aurora-1 (Aurora B)) | Ki (JAK3) [nM] | Ki (JAK3; read-out: JAK3 Ki value) [nM] |
| --- | --- | --- | --- |
| COC1(C)CN(c2cc(Nc3cc(C)n[nH]3)nc(Sc3ccc(NC(=O)c4ccccc4Cl)cc3)n2)C1 [Compound 51] | ≤ 10 nM | 10 to 500 | – |
| Cc1cc(Nc2cc(N3CCC3)nc(Sc3ccc(NC(=O)c4cnccc4C(F)(F)F)cc3)n2)[nH]n1 [Compound 59] | ≤ 10 nM | – | – |
| CC(C)=C1CN(c2cc(Nc3cc(C)n[nH]3)nc(Sc3ccc(NC(=O)CC(F)(F)F)cc3)n2)C1 [Compound 184] | 10 to 50 nM and < 25 nM | 10 to 500 | – |
| Cc1cc(Nc2cc(N3CCC3)nc(Sc3ccc(NC(=O)Cc4ccccc4Cl)cc3)n2)[nH]n1 [Compound 57] | ≤ 10 nM | 10 to 500 | – |
| CCC(=O)Nc1ccc(Sc2nc(Nc3cc(C)n[nH]3)cc(N3CC4(C3)OCC4(C)C)n2)cc1 [Compound 92] | 10 to 50 nM | ≤ 10 | – |
| Cc1cc(Nc2cc(N3CCC3)nc(Sc3ccc(NC(=O)c4ccc(-c5ccccc5)cc4Cl)cc3)n2)[nH]n1 [Compound 83] | ≤ 10 nM | 10 to 500 | – |
| Cc1cc(Nc2cc(N3CC(F)(C4CC4)C3)nc(Sc3ccc(C(=O)NCC(F)(F)F)cc3)n2)[nH]n1 [Compound 205] | 10 to 50 nM and < 25 nM | – | 10 to 500 |
| Cc1cc(Nc2cc(N3CC(N4CCOCC4)C3)nc(Sc3ccc4nc(CC(F)(F)F)n(C)c4c3)n2)[nH]n1 [Compound 177] | ≤ 10 nM | 10 to 500 | – |
| Cc1cc(Nc2cc(N3CC(N4CCOCC4)C3)nc(Sc3ccc4c(c3)CN(CC(F)(F)F)C4=O)n2)[nH]n1 [Compound 173] | 10 to 50 nM and < 25 nM | ≤ 10 | – |
| COCc1cc(Nc2cc(N3CCC3)nc(Sc3ccc(NC(=O)c4ccccc4Cl)cc3)n2)n[nH]1 [Compound 82] | 50 to 2000 nM | – | 500 to 2000 |
| CCC(=O)Nc1ccc(Sc2nc(Nc3cc(C)n[nH]3)cc(N3CC(C)(N4CCCC4)C3)n2)cc1 [Compound 89] | ≤ 10 nM | 10 to 500 | – |
| Cc1cc(Nc2cc(N3CC(C)(C#N)C3)nc(Sc3ccc(NC(=O)CC(F)(F)F)cc3)n2)[nH]n1 [Compound 169] | ≤ 10 nM | – | 10 to 500 |
| Cc1cc(Nc2cc(N3CC(F)(C4CC4)C3)nc(Sc3ccc(NC(=O)C4(C)CC4)cc3)n2)[nH]n1 [Compound 203] | 50 to 2000 nM | 500 to 2000 | – |
| Cc1cc(Nc2cc(N3CC(N4CCCC4)C3)nc(Sc3ccc(NC(=O)CC(F)(F)F)cc3)n2)[nH]n1 [Compound 204] | ≤ 10 nM | – | 10 to 500 |
| Cc1cc(Nc2cc(N3CC(F)(C4CC4)C3)nc(Oc3ccc(NC(=O)CC(F)(F)F)cc3)n2)[nH]n1 [Compound 144] | 10 to 50 nM and < 25 nM | 10 to 500 | – |
| Cc1cc(Nc2cc(N3CC(F)(C4CC4)C3)nc(Sc3ccc(NS(C)(=O)=O)cc3)n2)[nH]n1 [Compound 151] | 50 to 2000 nM | ≤ 10 | – |
| Cc1cc(Nc2nc(Sc3ccc(NC(=O)CC(F)(F)F)cc3)nc(N3CC(F)(C4CC4)C3)c2F)[nH]n1 [Compound 178] | 10 to 50 nM | 500 to 2000 | – |
| Cc1cc(Nc2cc(N3CC(F)(C4CC4)C3)nc(Sc3cnc4ccccc4c3)n2)[nH]n1 [Compound 206] | 10 to 50 nM | ≤ 10 | – |
